These results are taken from ChEMBL document CHEMBL1201862, “PubChem BioAssay data set” (2004).

Assay in all cases: inhibition of tumour cell growth, NCI panel, 48 h
Experiment [1] has as its system OVCAR-4.
The subject of experiment [2] is A498.
Experiment [3] concerns U-251.
Experiment [4] concerns HCT-15.
In experiment [5] the test system is RXF 393.
Experiment [6] relates to ACHN.
In experiment [7] the test system is HCC 2998.
Experiment [8] has as its system SNB-19.
For experiment [9], the system named is Malme-3M.
Experiment [10] deals with SW-620.
Experiment [11] has as its system K562.
In experiment [12] the test system is A549.
In experiment [13] the test system is 786-0.
Experiment [14] has as its system Hs-578T.
The subject of experiment [15] is UO-31.
Experiment [16] deals with PC-3.
Experiment [17] concerns NCI-H226.
Experiment [18] concerns DU-145.
In experiment [19] the test system is SK-MEL-5.
The test system of experiment [20] is SNB-75.

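The compound was tested at five concentrations on cells cultured in 96-well plates, with a 48-hour exposure period. GI50 is the concentration that inhibits growth by half.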 Calls of active or inactive are those of the source. Cut-off read from the data, not from the text of the source: active = GI50 up to about 1.1 µM and inactive = higher.

Take `C/C=C(\N=C=S)C(=O)OC1C(COC(C)=O)OC([C@]2(O)CC(=O)C(N)=C(C(=O)O)C2=O)C(O)C1OC1CC(OC)C(O)([C@@H](C)OC(=O)[C@@H](C)CC)C(C)O1` (stereo not given in full): the GI50 in [1] was 4.26 µM (inactive); in experiment [2], 35 µM (inactive); in experiment [3], 9.27 µM (inactive); in [4] it was 16 µM; in experiment [5], 5.35 µM (inactive); in [6], 18.3 µM (inactive). For the same molecule, the GI50 in [7] is 18.9 µM (inactive); in [8] it was 11.9 µM (inactive); in experiment [9] it was 9.57 µM (inactive); in experiment [10] it was 3.01 µM (inactive); in experiment [11], 2.11 µM (inactive); in [12] it was 33.7 µM (inactive). Further, the GI50 in experiment [13] was 12.3 µM (inactive); in [14], 7.82 µM (inactive); in experiment [15] it was 18.2 µM (inactive); in [16], 15.7 µM (inactive); in experiment [17] it was 19.4 µM (inactive); in [18], 18.9 µM (inactive). The results for the GI50 in experiment [19] and in [20] were 14.8 µM (inactive) and 16.9 µM (inactive), respectively.

For `O=C1c2cccnc2C(=O)c2c1nc1ccccc1c2-c1cncc(-c2c3c(nc4ccccc24)C(=O)c2cccnc2C3=O)c1`, the GI50 is 0.236 µM (active) in [1]; 2.56 µM (inactive) in [2]; 0.146 µM (active) in [3]; 0.0251 µM in experiment [4]; 0.316 µM (active) in [5]; 0.124 µM (active) in experiment [6]. Besides, the GI50 in [7] is 0.359 µM (active); in experiment [8] it was 0.22 µM (active); in [9], 0.28 µM (active); in experiment [10], 0.041 µM (active); in [11], 0.213 µM (active); in [12] it was 0.37 µM (active). The GI50 in experiment [13] was 0.0995 µM (active); in [14], 0.39 µM (active); in [15] it was 0.244 µM (active); in [16], 0.303 µM (active); in experiment [17] it was 0.163 µM (active); in experiment [18], 0.165 µM (active). Besides, the GI50 in experiment [19] was 0.0568 µM (active); in experiment [20], 0.398 µM (active).

Regarding `CCOC(=O)C(Cc1ccc(N(CCCl)CCCl)cc1)NC(=O)CCCN1C(=O)CN=C(c2ccccc2)c2cc(Cl)ccc21` (stereo not given), the GI50 in [1] is 18.6 µM (inactive); in experiment [2] it was 39.9 µM (inactive); in [3], 27.3 µM (inactive); in experiment [4], 20.6 µM; in experiment [5] it was 3.25 µM (inactive); in [6], 7.08 µM (inactive). The GI50 in experiment [7] was 12.4 µM (inactive); in [8], > 100 µM (inactive); in experiment [9], 2.35 µM (inactive); in [10], 10.2 µM (inactive); in experiment [11], 6.32 µM (inactive); in experiment [12] it was 39.1 µM (inactive). Also, the GI50 in [13] was 10.2 µM (inactive); in [14], 6.67 µM (inactive); in [15] it was 13.8 µM (inactive); in experiment [16], 11.7 µM (inactive); in [17] it was 35.2 µM (inactive); in experiment [18] it was 14.9 µM (inactive). Further, the GI50 in experiment [19] was 12.4 µM (inactive); in experiment [20] it was 15.8 µM (inactive).

Turning to `C#CCn1c(=O)c(C)cn(/C(=C/C(=O)OCC)C(=O)OCC)c1=O`, the GI50 in experiment [1] was 6.28 µM (inactive); in experiment [2], 16 µM (inactive); in experiment [3] it was 9.98 µM (inactive); in [4], 1.21 µM; in experiment [5], 0.569 µM (active); in [6] it was 1.84 µM (inactive). Besides, the GI50 is 17.8 µM (inactive) in [7]; 14.6 µM (inactive) in experiment [8]; 1.59 µM (inactive) in experiment [9]; 1.67 µM (inactive) in experiment [10]; 2.84 µM (inactive) in experiment [11]; 16.2 µM (inactive) in experiment [12]. Moreover, the GI50 in experiment [13] was 2.84 µM (inactive); in [14], 10.6 µM (inactive); in experiment [15] it was 11.3 µM (inactive); in experiment [16], 12.6 µM (inactive); in [17], 2.19 µM (inactive); in [18], 10.4 µM (inactive). Moreover, the GI50 in experiment [19] is 11.7 µM (inactive); in experiment [20], 15 µM (inactive).

Take `COC1/C=C\C=C(/C)C(=O)Nc2cc3nc4ccc(Br)cc4oc-3c(c2=O)CC(C)CC(OC)C(O)C(C)/C=C(\C)C1OC(N)=O` (stereo not given): the GI50 is 0.469 µM (active) in experiment [1]; 13.5 µM (inactive) in experiment [2]; 4.46 µM (inactive) in [3]; 0.142 µM in [4]; < 0.0112 µM (active) in [5]; 0.21 µM (active) in [6]. Moreover, the GI50 in [7] is 0.126 µM (active); in experiment [8], 13 µM (inactive); in experiment [9], 0.0179 µM (active); in experiment [10], 0.01 µM (active); in experiment [11], 0.01 µM (active); in [12] it was 3.61 µM (inactive). In addition, the GI50 in [13] was 0.0227 µM (active); in experiment [14] it was 0.0628 µM (active); in [15], 0.12 µM (active); in experiment [16], 0.931 µM (active); in experiment [17], 1.75 µM (inactive); in [18], 0.0458 µM (active). Also, the GI50 in experiment [19] is 0.178 µM (active); in experiment [20], 7.08 µM (inactive).

Take `CCc1ccc(/C=C/C(=O)C2CN(CC)CCC2(O)/C=C/c2ccc(CC)cc2)cc1` (stereo not given): the GI50 in experiment [1] was 4.2 µM (inactive); in experiment [2], 10.7 µM (inactive); in experiment [3], 1.66 µM (inactive); in [4], 3.24 µM; in experiment [5], 3.18 µM (inactive); in experiment [6], 1.95 µM (inactive). Besides, the GI50 in [7] was 2.22 µM (inactive); in [8], 7.62 µM (inactive); in experiment [9] it was 7.31 µM (inactive); in [10] it was 1.88 µM (inactive); in [11] it was 2.52 µM (inactive); in experiment [12], 7.08 µM (inactive). For the same molecule, the GI50 in experiment [13] is 1.75 µM (inactive); in [14], 2.83 µM (inactive); in [15] it was 3.2 µM (inactive); in experiment [16] it was 3.55 µM (inactive); in experiment [17], 4.41 µM (inactive); in [18] it was 9.55 µM (inactive). Moreover, the GI50 in experiment [19] was 4.36 µM (inactive); in [20], 9.33 µM (inactive).

For `C[C@H](CCC(=O)O)[C@H]1CC[C@H]2[C@@H]3CC[C@@H]4C[C@H](O)CC[C@]4(C)[C@H]3C[C@H](O)[C@]12C` [DEOXYCHOLIC ACID], the GI50 is 49.7 µM (inactive) in [1]; 41.2 µM (inactive) in [2]; 30.7 µM (inactive) in experiment [3]; 36.1 µM in experiment [4]; 52.4 µM (inactive) in [5]; 37.8 µM (inactive) in experiment [6]. Moreover, the GI50 in experiment [7] was 61.2 µM (inactive); in experiment [8] it was 40.1 µM (inactive); in [9], 32.8 µM (inactive); in [10], 47.8 µM (inactive); in experiment [11], 36.6 µM (inactive); in experiment [12] it was 35.9 µM (inactive). Besides, the GI50 in experiment [13] is 45.8 µM (inactive); in experiment [14] it was 40.7 µM (inactive); in experiment [15], 37.6 µM (inactive); in experiment [16], 33.6 µM (inactive); in experiment [17] it was 95.1 µM (inactive); in experiment [18] it was 65.6 µM (inactive). The GI50 was 37.8 µM (inactive) in experiment [19] and 37.1 µM (inactive) in experiment [20].
